Measurements published in patent US6737409B2, “Dolastatin 10 derivatives” (Hoffmann-La Roche Inc., priority 2001, dated 2004).
Like-named read-outs stand apart in the source and are kept apart here.

Tests used:
[1] = test system: HCT 116; experiment: Antiproliferative activity assay (WST-8); format: cell-based; conditions: Homo sapiens, HCT-116, 96 h
Experimental: Antiproliferative activity assay was carried out as follows. A single suspension of tumor cells was inoculated to the serially diluted 96-well microtestplate. Then the testplate was incubated in the 5% CO2 ambience at 37° C. for 4 days (2-3×10^3 cells/well). The degree of cell growth in a monolayer was measured by using WST-8 (Dojindo, Japan). IC50 values of drugs against tumor cells were calculated as the concentration of drug yielding 50% OD of the control growth.

[2] = Maximum tolerated dose (MTD) by i.v. administration in mice; conditions: mouse, in vivo, iv, read-out: maximum tolerated doses (MTD)
Experimental: The maximum tolerated doses (MTD) of the following representative compounds
of the present invention were examined by i.v. administration in mice. The respective MTD values of the compounds were 14, 18, 10, 8, 8, 2 and 2 mg/kg.

[3] = incubated 4 days, WST-8, concentration of drug yielding 50% OD of the control growth, read-out: HCT 116 IC50

SMILES | IC50 ([1]; read-out: HCT 116 IC50 (nM)) | MTD [2] | IC50 [1, 3]
CCSC(C(C)C(=O)NCCc1cccc(O)c1)C1CCCN1C(=O)CC(OC)C(C(C)CC)N(C)C(=O)C(NC(=O)C(C(C)C)N(C)C)C(C)C (single isomer, unassigned) [N-(1-{[1-sec-Butyl-4-(2-{1-ethylsulfanyl-2-[2-(3-hydroxy-phenyl)-ethylcarbamoyl]-propyl}-pyrrolidin-1-yl)-2-methoxy-4-oxo-butyl]-methyl-carbamoyl}-2-methyl-propyl)-2-dimethylamino-3-methyl-butyramide] | 0.84 nM | 2 mg/kg | 
CCC(C)C(C(CC(=O)N1CCCC1C(SC)C(C)C(=O)NCCc1cccc(O)c1)OC)N(C)C(=O)C(NC(=O)C(C(C)C)N(C)C)C(C)C (single isomer, unassigned) [N-(1-{[1-sec-Butyl-4-(2-{2-[2-(3-hydroxy-phenyl)-ethylcarbamoyl]-1-methylsulfanyl-propyl}-pyrrolidin-1-yl)-2-methoxy-4-oxo-butyl]-methyl-carbamoyl}-2-methyl-propyl)-2-dimethylamino-3-methyl-butyramide] | 0.19 nM | 2 mg/kg | 
CCSC(C(C)C(=O)N(C)CCc1cccc(O)c1)C1CCCN1C(=O)CC(OC)C(C(C)CC)N(C)C(=O)C(NC(=O)C(C(C)C)N(C)C)C(C)C (single isomer, unassigned) [N-[1-({1-sec-Butyl-4-[2-(1-ethylsulfanyl-2-{[2-(3-hydroxy-phenyl)-ethyl]-methyl-carbamoyl}-propyl)-pyrrolidin-1-yl]-2-methoxy-4-oxo-butyl}-methyl-carbamoyl)-2-methyl-propyl]-2-dimethylamino-3-methyl-butyramide] |  | 8 mg/kg | 0.11 nM
CCC(C)C(C(CC(=O)N1CCCC1C(SC)C(C)C(=O)N(C)CCc1cccc(O)c1)OC)N(C)C(=O)C(NC(=O)C(C(C)C)N(C)C)C(C)C (single isomer, unassigned) [N-[1-({1-sec-Butyl-4-[2-(2-{[2-(3-hydroxy-phenyl)-ethyl]-methyl-carbamoyl}-1-methylsulfanyl-propyl)-pyrrolidin-1-yl]-2-methoxy-4-oxo-butyl}-methyl-carbamoyl)-2-methyl-propyl]-2-dimethylamino-3-methyl-butyramide] |  | 8 mg/kg | 0.66 nM
CCC(C)C(C(CC(=O)N1CCCC1C(CC(=O)NCCc1ccccc1)SC)OC)N(C)C(=O)C(NC(=O)C(NC)C(C)C)C(C)C (stereo not drawn) [N-[1-({1-sec-Butyl-2-methoxy-4-[2-(1-methylsulfanyl-2-phenethylcarbamoylethyl)pyrrolidin-1-yl]-4-oxo-butyl}-methyl-carbamoyl)-2-methyl-propyl]-3-methyl-2-methylamino-butyramide] |  | 14 mg/kg | 0.12 nM
CCC(C)C(C(CC(=O)N1CCCC1C(CC(=O)NCCc1ccccc1)SC(C)C)OC)N(C)C(=O)C(NC(=O)C(NC)C(C)C)C(C)C (stereo not drawn) [N-[1-({1-sec-Butyl-4-[2-(1-isopropylsulfanyl-2-phenethylcarbamoyl-ethyl)-pyrrolidin-1-yl]-2-methoxy-4-oxo-butyl}-methyl-carbamoyl)-2-methyl-propyl]-3-methyl-2-methylamino-butyramide] |  | 10 mg/kg | 0.65 nM
CCC(C)C(C(CC(=O)N1CCCC1C(CC(=O)NCCc1ccccc1)S(C)(=O)=O)OC)N(C)C(=O)C(NC(=O)C(NC)C(C)C)C(C)C (stereo not drawn) [N-[1-({1-sec-Butyl-4-[2-(1-methanesulfonyl-2-phenethylcarbamoyl-ethyl)-pyrrolidin-1-yl]-2-methoxy-4-oxo-butyl}-methyl-carbamoyl)-2-methyl-propyl]-3-methyl-2-methylamino-butyramide] |  | 18 mg/kg | 0.77 nM
CCC(C)C(C(CC(=O)N1CCCC1C(CC(=O)NCCc1cccnc1)SC)OC)N(C)C(=O)C(NC(=O)C(C(C)C)N(C)C)C(C)C (stereo not drawn) [N-{1-[(1-sec-Butyl-2-methoxy-4-{2-[1-methylsulfanyl-2-(2-pyridin-3-yl-ethylcarbamoyl)-ethyl]-pyrrolidin-1-yl}-4-oxo-butyl)-methyl-carbamoyl]-2-methyl-propyl}-2-dimethylamino-3-methyl-butyramide] |  |  | 0.91 nM
CCC(C)C(C(CC(=O)N1CCCC1C(CC(=O)NCCc1cccs1)SC)OC)N(C)C(=O)C(NC(=O)C(C(C)C)N(C)C)C(C)C (stereo not drawn) [N-{1-[(1-sec-Butyl-2-methoxy-4-{2-[1-methylsulfanyl-2-(2-thiophen-2-yl-ethylcarbamoyl)-ethyl]-pyrrolidin-1-yl}-4-oxo-butyl)-methyl-carbamoyl]-2-methyl-propyl}-2-dimethylamino-3-methyl-butyramide] |  |  | 0.5 nM
CCC(C)C(C(CC(=O)N1CCCC1C(CC(=O)N(C)CCc1ccccc1)SC)OC)N(C)C(=O)C(NC(=O)C(C(C)C)N(C)C)C(C)C (stereo not drawn) [N-{1-[(1-sec-Butyl-2-methoxy-4-{2-[2-(methyl-phenethyl-carbamoyl)-1-methylsulfanyl-ethyl]-pyrrolidin-1-yl}-4-oxo-butyl)-methyl-carbamoyl]-2-methyl-propyl}-2-dimethylamino-3-methyl-butyramide] |  |  | 0.87 nM
CCC(C)C(C(CC(=O)N1CCCC1C(CC(=O)NCCc1ccccc1)SCCO)OC)N(C)C(=O)C(NC(=O)C(C(C)C)N(C)C)C(C)C (stereo not drawn) [N-{1-[(1-sec-Butyl-4-{2-[1-(2-hydroxy-ethylsulfanyl)-2-phenethylcarbamoyl-ethyl]-pyrrolidin-1-yl}-2-methoxy-4-oxo-butyl)-methyl-carbamoyl]-2-methyl-propyl}-2-dimethylamino-3-methyl-butyramide] |  |  | 0.39 nM
CCC(C)C(C(CC(=O)N1CCCC1C(CC(=O)NCCc1ccccc1)Sc1cccc(O)c1)OC)N(C)C(=O)C(NC(=O)C(C(C)C)N(C)C)C(C)C (stereo not drawn) [N-{1-[(1-sec-Butyl-4-{2-[1-(3-hydroxy-phenylsulfanyl)-2-phenethylcarbamoyl-ethyl]-pyrrolidin-1-yl}-2-methoxy-4-oxo-butyl)-methyl-carbamoyl]-2-methyl-propyl}-2-dimethylamino-3-methyl-butyramide] |  |  | 0.3 nM
CCC(C)C(C(CC(=O)N1CCCC1[C@@H](CC(=O)NCCc1ccccc1)Sc1ccc(O)cc1)OC)N(C)C(=O)C(NC(=O)C(C(C)C)N(C)C)C(C)C (stereo partly drawn) [N-{1-[(1-sec-Butyl-4-{2-[1-(R)-(4-hydroxy-phenylsulfanyl)-2-phenethylcarbamoyl-ethyl]-pyrrolidin-1-yl}-2-methoxy-4-oxo-butyl)-methyl-carbamoyl]-2-methyl-propyl}-2-dimethylamino-3-methyl-butyramide] |  |  | 0.6 nM
CCC(C)C(C(CC(=O)N1CCCC1C(CC(=O)NCCc1ccccc1)Sc1ccc(NC(C)=O)cc1)OC)N(C)C(=O)C(NC(=O)C(C(C)C)N(C)C)C(C)C (stereo not drawn) [N-{1-[(4-{2-[1-(4-Acetylamino-phenylsulfanyl)-2-phenethylcarbamoyl-ethyl]-pyrrolidin-1-yl}-1-sec-butyl-2-methoxy-4-oxo-butyl)-methyl-carbamoyl]-2-methyl-propyl}-2-dimethylamino-3-methyl-butyramide] |  |  | 0.98 nM
